Patent publication US10294229B2, “Heteroaryl substituted aminopyridine compounds” (BRISTOL-MYERS SQUIBB COMPANY, priority 2015, dated 2019)

Experiments:
IRAK4 = IRAK4 (Homo sapiens (Human), UniProt Q9NWZ3); test: IRAK4 Inhibition Assay; assay type: biochemical; details: ATP 500 μM; IRAK4 0.6 nM
Summary of the method: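 Mobility-shift kinase assay: 0.6 nM IRAK4, 500 μM ATP, 1.5 μM fluorescent peptide, 60 min, room temperature. Percent inhibition was normalised between enzyme-free and DMSO-only wells.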

[1] = test system: Human whole blood stimulated with a TLR2 agonist (lipoteichoic acid), IL-6 levels; test: IRAK4 Whole Blood Assay; assay type: cell-based; details: Homo sapiens, lipoteichoic acid 10 μg/mL
Experimental: Human whole blood containing the anti-coagulant ACD-A was plated in 384-well plate (25 μL/well) and incubated with compounds for 60 minutes at 37° C. in a 5% CO2 incubator. The blood was stimulated with a TLR2 agonist, 10 μg/mL final concentration of lipoteichoic acid (Invivogen, San Diego, Calif.) in 25 μL RPMI (Gibco) for 5 hours in a 5% CO2 incubator. At the end of the incubation, plates were centrifuged at 2300 rpm for 5 minutes. Supernatants were harvested and analyzed for IL-6 levels by Flow Cytometry beads assay (BD Biosciences, San Jose, Calif.).

Sequence of IRAK4 (Q9NWZ3 whole entry, species assumed): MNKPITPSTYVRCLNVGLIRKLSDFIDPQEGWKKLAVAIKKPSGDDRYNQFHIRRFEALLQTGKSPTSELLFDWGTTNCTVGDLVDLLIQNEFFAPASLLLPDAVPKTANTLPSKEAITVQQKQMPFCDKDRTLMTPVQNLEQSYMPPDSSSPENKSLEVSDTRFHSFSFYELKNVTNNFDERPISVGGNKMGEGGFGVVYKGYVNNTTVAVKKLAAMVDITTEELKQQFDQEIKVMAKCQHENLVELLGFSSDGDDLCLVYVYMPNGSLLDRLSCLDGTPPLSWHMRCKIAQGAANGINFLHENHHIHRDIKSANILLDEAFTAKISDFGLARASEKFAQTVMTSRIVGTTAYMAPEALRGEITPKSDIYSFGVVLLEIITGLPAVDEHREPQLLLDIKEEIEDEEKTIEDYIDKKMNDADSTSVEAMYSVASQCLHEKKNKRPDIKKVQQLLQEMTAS

IC50 (IRAK4) [nM]	EC50 [1] [nM]	Compound
9	4530	CC(C)Nc1cc(-n2ncc3cc(C#N)cnc32)ncc1-c1cn([C@H](CO)c2ccccc2)nn1 [Example 87, (S)-1-(5-(1-(2-hydroxy-1-phenylethyl)-1H-1,2,3-triazol-4-yl)-4-(isopropylamino)pyridin-2-yl)-1H-pyrazolo[3,4-b]pyridine-5-carbonitrile]
8	3370	CC(C)Nc1cc(-n2ncc3cc(C#N)cnc32)ncc1-c1cn(C[C@H]2CCCN2C(=O)OC(C)(C)C)nn1 [Example 99, (R)-tert-butyl 2-((4-(6-(5-cyano-1H-pyrazolo[3,4-b]pyridin-1-yl)-4-(isopropylamino)pyridin-3-yl)-1H-1,2,3-triazol-1-yl)methyl)pyrrolidine-1-carboxylate]
13	1860	CC(C)Nc1cc(-n2ncc3cc(C#N)cnc32)ncc1-c1cn(C2CN(C(=O)OC(C)(C)C)C2)nn1 [Example 113, tert-butyl 3-(4-(6-(5-cyano-1H-pyrazolo [3,4-b]pyridin-1-yl)-4-(isopropylamino)pyridin-3-yl)-1H-1,2,3-triazol-1-yl)azetidine-1-carboxylate]
3	870	CC(C)Nc1cc(-n2ncc3cc(C#N)cnc32)ncc1-c1cn(CCCCCN)nn1 [Example 114, 1-(5-(1-(5-aminopentyl)-1H-1,2,3-triazol-4-yl)-4-(isopropylamino)pyridin-2-yl)-1H-pyrazolo[3,4-b]pyridine-5-carbonitrile]
3	210	CC(C)Nc1cc(-n2ncc3cc(C#N)cnc32)ncc1-c1cn(CCS(C)(=O)=O)nn1 [Example 116, 1-(4-(isopropylamino)-5-(1-(2-(methylsulfonyl)ethyl)-1H-1,2,3-triazol-4-yl)pyridin-2-yl)-1H-pyrazolo[3,4-b]pyridine-5-carbonitrile]
3	1090	CC(C)Nc1cc(-n2ncc3cc(C#N)cnc32)ncc1-c1cn(CCc2ccccn2)nn1 [Example 118, 1-(4-(isopropylamino)-5-(1-(2-(pyridin-2-yl)ethyl)-1H-1,2,3-triazol-4-yl)pyridin-2-yl)-1H-pyrazolo[3,4-b]pyridine-5-carbonitrile]
6	1740	COCCn1cc(-c2cnc(-n3ncc4cc(C#N)cnc43)cc2NC(C)C)nn1 [Example 121, 1-(4-(isopropylamino)-5-(1-(2-methoxyethyl)-1H-1,2,3-triazol-4-yl)pyridin-2-yl)-1H-pyrazolo[3,4-b]pyridine-5-carbonitrile]
3	1760	CC(C)Nc1cc(-n2ncc3cc(C#N)cnc32)ncc1-c1cn(CCCCCO)nn1 [Example 125, 1-(5-(1-(5-hydroxypentyl)-1H-1,2,3-triazol-4-yl)-4-(isopropylamino)pyridin-2-yl)-1H-pyrazolo[3,4-b]pyridine-5-carbonitrile]
4	390	CC(C)Nc1cc(-n2ncc3cc(C#N)cnc32)ncc1-c1cn(CCN(C)C)nn1 [Example 126, 1-(5-(1-(2-(dimethylamino)ethyl)-1H-1,2,3-triazol-4-yl)-4-(isopropylamino)pyridin-2-yl)-1H-pyrazolo[3,4-b]pyridine-5-carbonitrile]
10	2950	CC(C)Nc1cc(-n2ncc3cc(C#N)cnc32)ncc1-c1cn(CCCN2CCCC2)nn1 [Example 127, 1-(4-(isopropylamino)-5-(1-(3-(pyrrolidin-1-yl)propyl)-1H-1,2,3-triazol-4-yl)pyridin-2-yl)-1H-pyrazolo[3,4-b]pyridine-5-carbonitrile]
7	830	CC(C)Nc1cc(-n2ncc3cc(C#N)cnc32)ncc1-c1cn(CC(O)C(F)(F)F)nn1 (stereo not shown) [Example 129, 1-(4-(isopropylamino)-5-(1-(3,3,3-trifluoro-2-hydroxypropyl)-1H-1,2,3-triazol-4-yl)pyridin-2-yl)-1H-pyrazolo[3,4-b]pyridine-5-carbonitrile]
5	10700	CC(C)Nc1cc(-n2ncc3cc(C#N)cnc32)ncc1-c1cn(CCCc2ccccc2)nn1 [Example 130, 1-(4-(isopropylamino)-5-(1-(3-phenylpropyl)-1H-1,2,3-triazol-4-yl)pyridin-2-yl)-1H-pyrazolo[3,4-b]pyridine-5-carbonitrile]
12	1080	CC(C)Nc1cc(-n2ncc3cc(C#N)cnc32)ncc1-c1cn(CC(O)CO)nn1 (stereo not shown) [Example 131, 1-(5-(1-(2,3-dihydroxypropyl)-1H-1,2,3-triazol-4-yl)-4-(isopropylamino)pyridin-2-yl)-1H-pyrazolo[3,4-b]pyridine-5-carbonitrile]
10	980	COCC(O)Cn1cc(-c2cnc(-n3ncc4cc(C#N)cnc43)cc2NC(C)C)nn1 (stereo not shown) [Example 133, 1-(5-(1-(2-hydroxy-3-methoxypropyl)-1H-1,2,3-triazol-4-yl)-4-(isopropylamino)pyridin-2-yl)-1H-pyrazolo[3,4-b]pyridine-5-carbonitrile]
6	550	CC[C@H](O)Cn1cc(-c2cnc(-n3ncc4cc(C#N)cnc43)cc2NC(C)C)nn1 [Example 134, (S)-1-(5-(1-(2-hydroxybutyl)-1H-1,2,3-triazol-4-yl)-4-(isopropylamino)pyridin-2-yl)-1H-pyrazolo[3,4-b]pyridine-5-carbonitrile]
4	1190	CC(C)Nc1cc(-n2ncc3cc(C#N)cnc32)ncc1-c1cn(CC(O)C(C)C)nn1 (stereo not shown) [Example 135, 1-(5-(1-(2-hydroxy-3-methylbutyl)-1H-1,2,3-triazol-4-yl)-4-(isopropylamino)pyridin-2-yl)-1H-pyrazolo[3,4-b]pyridine-5-carbonitrile]
8	1690	CCOCC(O)Cn1cc(-c2cnc(-n3ncc4cc(C#N)cnc43)cc2NC(C)C)nn1 (stereo not shown) [Example 137, 1-(5-(1-(3-ethoxy-2-hydroxypropyl)-1H-1,2,3-triazol-4-yl)-4-(isopropylamino)pyridin-2-yl)-1H-pyrazolo[3,4-b]pyridine-5-carbonitrile]
4	1090	CC(C)Nc1cc(-n2ncc3cc(C#N)cnc32)ncc1-c1cn(C2CN(C(=O)CC3CC3)C2)nn1 [Example 139, 1-(5-(1-(1-(2-cyclopropylacetyl)azetidin-3-yl)-1H-1,2,3-triazol-4-yl)-4-(isopropylamino)pyridin-2-yl)-1H-pyrazolo[3,4-b]pyridine-5-carbonitrile]
8	960	CC(C)Nc1cc(-n2ncc3cc(C#N)cnc32)ncc1-c1cn(C2CN(C#N)C2)nn1 [Example 141, 1-(5-(1-(1-cyanoazetidin-3-yl)-1H-1,2,3-triazol-4-yl)-4-(isopropylamino)pyridin-2-yl)-1H-pyrazolo[3,4-b]pyridine-5-carbonitrile]
5	560	COC(=O)N1CC(n2cc(-c3cnc(-n4ncc5cc(C#N)cnc54)cc3NC(C)C)nn2)C1 [Example 142, methyl 3-(4-(6-(5-cyano-1H-pyrazolo[3,4-b]pyridin-1-yl)-4-(isopropylamino)pyridin-3-yl)-1H-1,2,3-triazol-1-yl)azetidine-1-carboxylate]
8	970	CC(C)Nc1cc(-n2ncc3cc(C#N)cnc32)ncc1-c1cn(C2CN(C(=O)c3ccccc3)C2)nn1 [Example 143, 1-(5-(1-(1-benzoylazetidin-3-yl)-1H-1,2,3-triazol-4-yl)-4-(isopropylamino)pyridin-2-yl)-1H-pyrazolo[3,4-b]pyridine-5-carbonitrile]
4	490	CC(C)Nc1cc(-n2ncc3cc(C#N)cnc32)ncc1-c1cn(C2CN(C(=O)C(C)C)C2)nn1 [Example 144, 1-(5-(1-(1-isobutyrylazetidin-3-yl)-1H-1,2,3-triazol-4-yl)-4-(isopropylamino)pyridin-2-yl)-1H-pyrazolo[3,4-b]pyridine-5-carbonitrile]
4	740	CC(C)Nc1cc(-n2ncc3cc(C#N)cnc32)ncc1-c1cn(C2CN(C(=O)C3CC3)C2)nn1 [Example 145, 1-(5-(1-(1-(cyclopropanecarbonyl)azetidin-3-yl)-1H-1,2,3-triazol-4-yl)-4-(isopropylamino)pyridin-2-yl)-1H-pyrazolo[3,4-b]pyridine-5-carbonitrile]
3	1090	CC(C)Nc1cc(-n2ncc3cc(C#N)cnc32)ncc1-c1cn(C2CN(C(=O)C(C)(C)C)C2)nn1 [Example 146, 1-(4-(isopropylamino)-5-(1-(1-pivaloylazetidin-3-yl)-1H-1,2,3-triazol-4-yl)pyridin-2-yl)-1H-pyrazolo[3,4-b]pyridine-5-carbonitrile]
5	1060	CC(C)Nc1cc(-n2ncc3cc(C#N)cnc32)ncc1-c1cn(C2CN(c3ncccn3)C2)nn1 [Example 147, 1-(4-(isopropylamino)-5-(1-(1-(pyrimidin-2-yl)azetidin-3-yl)-1H-1,2,3-triazol-4-yl)pyridin-2-yl)-1H-pyrazolo[3,4-b]pyridine-5-carbonitrile]
5	1900	Cc1nnc(N2CC(n3cc(-c4cnc(-n5ncc6cc(C#N)cnc65)cc4NC(C)C)nn3)C2)o1 [Example 148, 1-(4-(isopropylamino)-5-(1-(1-(5-methyl-1,3,4-oxadiazol-2-yl)azetidin-3-yl)-1H-1,2,3-triazol-4-yl)pyridin-2-yl)-1H-pyrazolo[3,4-b]pyridine-5-carbonitrile]
